According to ChEMBL document CHEMBL3044945, “Synthesis of 1,3,5-trisubstituted pyrazoline nucleus containing compounds and screening for antimicrobial activity” (2012):

Assays:
Type in all cases: functional
Penicillium chrysogenum = assay: Antifungal activity against Penicillium chrysogenum MTCC 161 at 10 ug/ml after 48 hr by cup-plate method; settings: MTCC 161, 48 h, read-out: DIZ
Aspergillus niger = assay: Antifungal activity against Aspergillus niger MTCC 2546 at 10 ug/ml after 48 hr by cup-plate method; settings: MTCC 2546, 48 h, read-out: DIZ
Micrococcus luteus = assay: Antibacterial activity against Micrococcus luteus MTCC 1538 at 10 ug/ml after 48 hr by cup-plate method; settings: MTCC 1538, 48 h, read-out: DIZ
Pseudomonas fluorescens = assay: Antibacterial activity against Pseudomonas fluorescens MTCC 2421 at 10 ug/ml after 48 hr by cup-plate method; settings: MTCC 2421, 48 h, read-out: DIZ
Staphylococcus aureus = assay: Antibacterial activity against Staphylococcus aureus MTCC 1430 at 10 ug/ml after 48 hr by cup-plate method; settings: MTCC 1430, 48 h, read-out: DIZ
Escherichia coli = assay: Antibacterial activity against Escherichia coli MTCC 1573 at 10 ug/ml after 48 hr by cup-plate method; settings: MTCC 1573, 48 h, read-out: DIZ
Pseudomonas aeruginosa = assay: Antibacterial activity against Pseudomonas aeruginosa MTCC 424 at 10 ug/ml after 48 hr by cup-plate method; settings: MTCC 424, 48 h, read-out: DIZ
Bacillus pumilus = assay: Antibacterial activity against Bacillus pumilus MTCC 1456 at 10 ug/ml after 48 hr by cup-plate method; settings: MTCC 1456, 48 h, read-out: DIZ
Bacillus subtilis = assay: Antibacterial activity against Bacillus subtilis MTCC 441 at 10 ug/ml after 48 hr by cup-plate method; settings: MTCC 441, 48 h, read-out: DIZ

How did the zone of inhibition at 10 µg/mL (Penicillium chrysogenum) turn out when `OC(Cn1cncn1)(Cn1cncn1)c1ccc(F)cc1F` [FLUCONAZOLE] was run?
The zone of inhibition at 10 µg/mL was 25 mm.

And the zone of inhibition at 10 µg/mL (Aspergillus niger)?
Its zone of inhibition at 10 µg/mL is 24 mm.

What does the source list for `CCn1cc(C(=O)O)c(=O)c2cc(F)c(N3CCNCC3)cc21` [NORFLOXACIN]?
zone of inhibition at 10 µg/mL (Micrococcus luteus): 32 mm; zone of inhibition at 10 µg/mL (Pseudomonas fluorescens): 27 mm; zone of inhibition at 10 µg/mL (Staphylococcus aureus): 28 mm; zone of inhibition at 10 µg/mL (Escherichia coli): 27 mm; zone of inhibition at 10 µg/mL (Pseudomonas aeruginosa): 24 mm; zone of inhibition at 10 µg/mL (Bacillus pumilus): 27 mm; zone of inhibition at 10 µg/mL (Bacillus subtilis): 25 mm
